Patent US20250034191A1, “LIGININ FLOWER PRODUCTION AND USES THEREOF” (SILICYCLE INC., priority 2021, published 2025)
Where “and” joins values, the source holds several entries; their conditions need not be identical. Equal entries are not always repeated.

Tests used:
[1] = test system: S. typhimurium TA 98; assay: Ames test (OECD 471), plate incorporation assay; type: cell-based, Salmonella typhimurium; settings: TA 98 with S9, positive control, 3.0 μg/plate (Table 3)
From the text: The purpose of the test is to investigate the possible genotoxic activity exerted by the tested substance in bacterial strains of Salmonella typhimurium, with and without metabolic activation with S9.
The Ames test allows for detecting the induction of point mutations in nucleotide bases, such as deletions, insertions, transversions and frameshift mutations by using modified Salmonella typhimurium strains. These strains carry a defective gene in the histidine operon making them auxotroph for this amino acid (mutants His-which require histidine in the culture medium for growth). The method guiding principle is based on the reverse mutation phenomenon by which bacteria exposed to a mutagenic substance may change back and become again prototroph concerning histidine (His+). The bacterial cells in growth phase are exposed to different concentrations of the test agent and mutagenic activity is determined by the capability of the test substance to induce a significant increase in the number of revertant (histidine-independent mutant, His+) in comparison to the spontaneous reversions occurring in the control cultures.
Some chemical agents are not directly mutagen but become so by following transformation and metabolic activation occurring in the organism by liver enzyme activity. To study this genotoxic effect, rat liver microsomal fraction (S9) has been added. The employ of S9 allows identifying substances that act as indirect mutagen.
In this assay, 5 bacterial strains TA 1535, TA100, TA 102, TA 1537 and TA98 have been used and their characteristics are illustrated in Table 3. Each tester strains contains a different type of mutation in the histidine operon. TA 1535 and TA 100 strains are specific testers for mutagens causing base substitutions. The TA 102 strain is used to detect mutagens that require an intact excision repair system. […] Furthermore, the TA 102 strain contains the multicopy plasmid, pAQ1, which confers tetracycline resistance. The frameshift tester strains used are TA 1537 and TA 98. TA 98, like TA 100, is ampicillin resistant. All S. typhimurium strains carry, along with the defect in the histidine gene (His−), a deep rough (rfa) character, a mutation that causes partial loss of the lipopolysaccharide barrier that coats the surface of the bacteria and increases permeability to large molecules. […] For technical reason, the deletion excising the uvrB gene extends through the bio gene and, consequently, these bacteria also require biotin for growth.
The study was performed using the plate incorporation assay with and without S9 mix. S9 is composed by Aroclor 1254 induced rat liver supplemented with glucose-6-phosphate and NADP (Moltox®). The experiment was performed in duplicate Petri dishes containing basal medium and a further layer of medium containing histidine+biotin, the Salmonella typhimurium suspension, the sample to be tested at different concentrations and, if the case of metabolic activation, a 5% S9 mix. Dishes were incubated for 48 hours at 37° C. When the incubation time was over, a basal bacterial growth was achieved limited by the amount of histidine in the medium and in add the growth of revertant colonies (his+). In particular, the basic number of revertant colonies is steady, different for each strain, due to the spontaneous mutation rate of the bacterial strain. If an increase in the number of revertant colonies is observed, this is proportional to the tested sample concentration and to its mutagen capability. […]

[2] = test system: NADPH-oxidase complex; settings: Zhang, Yi et al., American Journal of Hypertension, 2005; cited from earlier work
[3] = test system: secreted IL6; assay: Interleukin 6 (IL6) secretions in coculture; type: cell-based, human
From the text: To assess the effect of the test element on inflammation, we assayed extracellular concentrations of secreted IL6. The results were normalized by the number of fibroblasts and represented as a percentage of the solvent condition DMSO (FIG. 13).

[4] = test system: reconstructed artificial human skin model (normal human epidermal keratinocytes); assay: In vitro skin irritation, reconstructed human epidermis (OECD 439), MTT; type: cell-based; settings: 42 h treatment, 42 hours incubation
Method: The purpose of this test is to evaluate if the tested material is, or is not a skin irritant, according to the method described in OECD 439. This method uses the human artificial skin model (EPISKIN™, EpiDerm™, Episkin™ RHE) to assess the skin irritation of chemical substances, mixtures and to properly label them to this respect if applicable.
The test is based on the evaluation of cell survival after the exposure to the substance through MTT assay and by comparison with epidermis treated with phosphate buffer only (negative control). The MTT method is a colorimetric assay that allows to determine the percentage of cells alive within an in vitro cultured tissue. This assay is based on the ability of the mitochondrial succinate dehydrogenase enzyme to metabolize the nitro-blue tetrazolium salt, giving a colored compound that can be measured by spectrophotometer reading. […]
Epidermis units are treated with 1 mg/ml MTT solution (3-[4,5-dimethylthiazol-2-yl]-2,5-diphenyl tetrazolium bromide) for 3 h at 37° C. […] 2 aliquots of every sample are transferred to a 96 well plate for the reading. The absorbance is read at the wavelength of 570 nm with a colorimeter (Tecan model Infinite 200 PRO) equipped with a microplate reader.

Compound: Nc1ccc2cc3ccccc3cc2c1 [2AAn, 2-aminoanthracene]
- Statistically significant vs solvent control (p < 0.05) [1]: yes
- revertant, mean [1]: 3320 UFC/plate
- revertant, single replicates [1]: 3353 UFC/plate and 3291 UFC/plate and 3316 UFC/plate

Compound: COc1cc(C(C)=O)ccc1O [Apocynin, apocynin]
- inhibition of the NADPH-oxidase complex [2]: effective inhibitor

Compound: C[C@@H]1C[C@H]2[C@@H]3CCC4=CC(=O)C=C[C@]4(C)[C@@]3(F)[C@@H](O)C[C@]2(C)[C@@]1(O)C(=O)CO [Dexamethasone]
- IL6 secretions, normalized by number of fibroblasts ([3]; D3, anti-inflammatory reference): 25%
- IL6 secretions, normalized by number of fibroblasts ([3]; D6, compared to the coculture control): 85%

Compound: CCCCCCCCCCCCOS(=O)(=O)[O-].[Na+] [SLS 5%]
- Classification [4]: I (Irritant)
- % mean cell viability (ds) ([4]; tested undiluted): 0.93%
